Measured values from US11173146B2, “Selective activators of the intermediate conductance CA2+activated K+ channel KCa3.1 and their methods of use” (The Regents of the University of California, priority 2014, dated 2021).
Entries after “also recorded” stand apart in the source; their conditions may differ. Where two headings read alike, the source gives them in different places.

Assays:
[1] = target: KCa2.1 (Homo sapiens, UniProt Q92952); settings: literature, cited from earlier work
[2] = target: T1, KCa3.1 (Homo sapiens, UniProt O15554+P0DP23); settings: literature; cited from earlier work
[3] = system: KCa2 channels; settings: all three KCa2 channels; literature; cited from earlier work
[4] = target: T1, KCa3.1; experiment: Whole-cell patch-clamp KCa3.1 activation (QPatch, HEK-293); format: cell-based; design: host or cells: HEK-293; settings: for effect of structural change on KCa2.3 and KCa3.1 activation compared with SKA-31: SAR, FIG. 2; for reduction of potency compared with SKA-31: KCa3.1
Text: (§1) Cells, Cell lines and Clones. […] The cloning of hKCa2.3 (19 CAG repeats) and hKCa3.1 has been previously described (Wulff et al., 2000). The hKCa2.3 clone was later stably expressed in COS-7 cells at Aurora Biosciences Corp., San Diego, Calif. Cell lines stably expressing other mammalian ion channels were gifts from several sources: hKCa1.1 in HEK-293 cells (Andrew Tinker, University College London); hKV2.1 in HEK293 cells (James Trimmer, UC Davis); KV11.1 (HERG) in HEK-293 cells (Craig January, University of Wisconsin, Madison); hNaV1.4 in HEK-293 cells (Frank Lehmann-Horn, University of Ulm, Germany), hNaV1.5 in HEK-293 cells (Christopher Lossin, University of California Davis), and hCaV1.2 in HEK-293 cells (Franz Hofmann, Munich, Germany).
(§2) Electrophysiology. Experiments were conducted either manually with an EPC-10 amplifier (HEKA, Lambrecht/Pfalz, Germany) or on a QPatch-16 automated electrophysiology platform (Sophion Biosciences, Denmark). […] Patch pipettes were pulled from soda lime glass (micro-hematocrit tubes, Kimble Chase, Rochester, N.Y.) and had resistances of 2-3 MΩ. […] Free Ca^2+ concentrations were calculated with MaxChelator assuming a temperature of 25° C., a pH of 7.2 and an ionic strength of 160 mM. […] Na^+ aspartate Ringer was used as an external solution (in mM): 160 Na^+ aspartate, 4.5 KCl, 2 CaCl2, 1 MgCl2, 5 HEPES, pH 7.4, 290-310 mOsm. […] Reduction of both peak and tail current by the drug was determined. NaV1.7 currents were recorded with 30 ms pulses from −90 mV to −10 mV every 10 sec with a CsF-based pipette solution and normal Ringer as an external solution. CaV1.2 currents were elicited by 100-ms depolarizing pulses from −80 to 20 mV every 10 sec with a CsCl-based pipette solution and an external solution containing 30 mM BaCl2. Blockade of both Na^+ and Ca^2+ currents was determined as reduction of the current minimum.
For automated electrophysiology experiments cells were grown to ˜70% confluency, rinsed in sterile PBS containing 0.02% EDTA, and lifted with 2 mL of TrypLE™ Express (Gibco, Grand Island, N.Y.) for ˜2 min. When cells were rounded but not detached, they were dislodged by gentle tapping, suspended in DMEM, centrifuged and resuspended in 1 ml of external solution, placed into the Qfuge tube and resuspended in 150-200 μL extracellular solution after one additional spin on the QPatch. Whole-cell patch-clamp experiments were then carried out using disposable 16-channel planar patch chip plates (QPlates; patch hole diameter approximately 1 μm, resistance 2.00±0.02 MΩ). […] In order to avoid rejection of cells with large KCa3.1 currents the minimum seal resistance for whole-cell requirement was lowered to 0.001 GΩ. […] Following establishment of the whole-cell configuration, cells were held at −80 mV and KCa3.1, KCa2.1 or KCa2.2 currents elicited by a voltage protocol that held at −80 mV for 20 ms, stepped to −120 mV for 20 ms, ramped from −120 to 40 mV in 200 ms and then stepped back to −120 mV for 20 ms. This pulse protocol was applied every 10 s. […] NaV1.2 currents from N1E-115 cells, NaV1.4 and NaV1.5 currents from stably transfected HEK cells were recorded with 20 ms pulses from −90 mV to 0 mV every 10 sec with a KF-based internal solution and normal Ringer as an external solution. Current slopes (in ampere per sec) were measured using the SophionQPatch software and exported to Microsoft Excel and Origin 7.0 (OriginLab Corp. MA) for analysis. […] Data fitting to the Hill equation to obtain EC50 and IC50 values was performed with Origin 7.0. Data are expressed as mean±SD.

[5] = target: T2, human KCa2.3 (Homo sapiens, UniProt Q9UGI6); experiment: Manual whole-cell patch-clamp KCa2.3 activation (COS-7); format: cell-based
T2 construct: The cloning of hKCa2.3 (19 CAG repeats) and hKCa3.1 has been previously described (Wulff et al., 2000)
Text: as §1, §2
For all electrophysiology experiments solutions of benzothiazoles and benzooxazoles were always freshly prepared from 1 mM or 10 mM stock solutions in DMSO during the experiment. The final DMSO concentration never exceeded 1%. For automated assays glass vial inserts (Sophion Biosciences, Denmark) were filled with 350-400 μL of compound solution and placed into the glass insert base plate for use in the QPatch assay right before starting the QPatch.
The compounds synthesized by these methods as well as five commercially available compounds were tested for their KCa2.3 and KCa3.1 activating activity using either manual or automated whole-cell patch-clamp. Our group previously described the establishment of a QPatch assay for KCa3.1 modulators. […] We here made use of this assay and determined EC50 values for KCa3.1 activation using HEK-293 cells stably expressing human KCa3.1. Activities on human KCa2.3 were determined by manual electrophysioiogy since we currently only have KCa2.3 available in COS-7 cells, which are difficult to handle on the QPatch.

[6] = system: porcine coronary arteries; experiment: Isometric myography on porcine coronary arteries, bradykinin-induced EDH-type relaxation; settings: blocker 1 μM
[7] = 250 nM free Ca2+, read-out: EC50 for KCa2.3 activation
[8] = 250 nM free Ca2+, read-out: EC50 for KCa3.1 activation
[9] = Appendix A, read-out: KCa3.1 EC50 (converted)
[10] = Appendix A, read-out: KCa2.3 EC50

T2 sequence (Q9UGI6 with tags, fused parts or gaps DUP76-80): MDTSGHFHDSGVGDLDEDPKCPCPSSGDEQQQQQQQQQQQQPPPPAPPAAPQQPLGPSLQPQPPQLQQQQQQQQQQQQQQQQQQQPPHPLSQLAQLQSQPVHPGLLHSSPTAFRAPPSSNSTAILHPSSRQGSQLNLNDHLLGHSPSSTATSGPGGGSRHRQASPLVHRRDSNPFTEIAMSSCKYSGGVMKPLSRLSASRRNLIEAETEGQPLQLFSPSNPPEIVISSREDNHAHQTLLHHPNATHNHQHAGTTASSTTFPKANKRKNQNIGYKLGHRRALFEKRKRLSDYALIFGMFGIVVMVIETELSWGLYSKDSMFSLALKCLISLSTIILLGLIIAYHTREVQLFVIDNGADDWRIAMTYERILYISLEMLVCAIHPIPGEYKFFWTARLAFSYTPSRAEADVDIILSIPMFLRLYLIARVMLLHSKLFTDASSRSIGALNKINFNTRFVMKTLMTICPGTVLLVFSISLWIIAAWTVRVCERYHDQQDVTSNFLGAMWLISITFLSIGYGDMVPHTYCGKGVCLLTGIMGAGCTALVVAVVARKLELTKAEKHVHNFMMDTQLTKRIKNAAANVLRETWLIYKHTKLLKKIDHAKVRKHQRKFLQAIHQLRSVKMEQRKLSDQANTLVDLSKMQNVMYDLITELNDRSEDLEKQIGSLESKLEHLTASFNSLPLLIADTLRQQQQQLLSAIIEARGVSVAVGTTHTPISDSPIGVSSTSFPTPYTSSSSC

| SMILES | effect of structural change on KCa2.3 and KCa3.1 activation compared with SKA-31 [4] | melting point | further results |
| --- | --- | --- | --- |
| CON=CNc1nc2nccc(C(C)Oc3ccc(Cl)cc3C)n2n1 (single isomer, unassigned; (-)) [(-)-CM-TMPF, N-{7-[1-(4-chloro-2-methylphenoxy)ethyl]-[1,2,4]triazolo[1,5-a]pyrimidin-2-yl}-N′-methoxy-formamidine] |  |  | KCa2.1 currents increased to % of their maximal activity ([1]; Ca2+ concentrations between 10 and 100 nM): roughly 40% |
| Cc1cc(NC2CCCCC2)nc(-n2nc(C)cc2C)n1 [CyPPA, cyclohexyl-[2-(3,5-dimethyl-pyrazole-1-yl-)6-methyl-pyrimidin-4-yl]-amine] |  |  | activity on KCa3.1 [2]: completely inactive; activity on KCa2.1 [1]: completely inactive |
| CCn1c(=O)[nH]c2ccccc21 [EBIO, 1-ethylbenzimidazolin-2-one] |  |  | EC50 [3]: ~300000 nM |
| Cc1cc(C)n(-c2nc(Nc3ccc(Cl)cc3)c3ncn(C)c3n2)n1 [NS13001] |  |  | activity on KCa3.1 [2]: completely inactive; activity on KCa2.1 [1]: completely inactive |
| Nc1nc2c(s1)CCc1ccccc1-2 [SKA-70, 4,5-Dihydronaphtho[1,2-d]thiazol-2-amine] | reduced both potency and selectivity |  |  |
| Nc1nc2c(s1)Cc1cc(F)ccc1-2 [SKA-71, 6-Fluoro-8H-indeno[1,2-d]thiazol-2-amine] | reduced both potency and selectivity | 217 °C (dec.) |  |
| Nc1nc(-c2cccc3ccccc23)cs1 [SKA-75, 2-Amino-4-(1-naphthyl)thiazole] | reduced both potency and selectivity |  |  |
| Nc1nc(-c2ccc3ccccc3c2)cs1 [SKA-76, 2-amino-4-(2-naphthyl)thiazole] | reduced both potency and selectivity |  |  |
| Nc1nc2c3c(ccc2s1)CCC3 [SKA-81, 7,8-Dihydro-6H-indeno[4,5-d]thiazol-2-amine] | reduction in potency | 195 °C |  |
| CC1=Nc2c(ccc3ccccc23)C1(C)C [SKA-92, 2,3,3-trimethyl-3H-benzo[g]indole] | completely abolished activity |  | EC50 [5, 10]: > 50000 nM; EC50 [4, 9]: 42000 nM |
| Nc1nc2c(ccc3ccccc32)o1 [SKA-102, Naphtho[1,2-d]oxazol-2-amine] |  |  | EC50 [5, 10]: 24000 nM; EC50 [4, 8]: 2700 nM |
| Cc1nc2cc3ccccc3cc2o1 [SKA-104, 2-methylnaphtho[2,3-d]oxazole] | completely abolished activity |  | EC50 [4, 9]: > 50000 nM |
| Nc1nc2c(cc(F)c3ccccc32)s1 [SKA-106, 5-Fluoronaphtho[1,2-d]thiazol-2-amme] |  |  | reduction of potency compared with SKA-31 [4]: roughly 10 fold |
| Cc1cc(C)c2c(c1)-c1nc(N)sc1CC2 [SKA-108, 6,8-Dimethyl-4,5-dihydronaphtho[1,2-d]thiazol-2-amine] | reduced both potency and selectivity | 159 °C |  |
| CC1Cc2sc(N)nc2-c2ccccc21 (stereo not shown) [SKA-113, 5-Methyl-4,5-dihydronaphtho[1,2-d]thiazol-2-amine] | reduced both potency and selectivity | 109 °C (dec.) |  |
| COc1cccc2c1CCc1sc(N)nc1-2 [SKA-114, 6-Methoxy-4,5-dihydronaphtho[1,2-d]thiazol-2-amine] | reduced both potency and selectivity | 200 °C |  |
| Cc1cc2oc(N)nc2c2ccccc12 [SKA-120, 5-Methylnaphtho[1,2-d]oxazol-2-amine] |  |  | EC50 [4, 8]: 180 nM; EC50 [4, 9]: 450 nM; selectivity for KCa3.1 over KCa2.3 ([4]; ratio of EC50 values): ~50 fold |
| Clc1ccccc1C(c1ccccc1)(c1ccccc1)n1cccn1 [TRAM-34, 1-[(2-chlorophenyl)diphenylmethyl]-1H-pyrazole, reference compound] |  |  | effect on the potentiation of BK-induced relaxation by SKA-111/SKA-121 [6]: prevented the increase of relaxation; also recorded: prevented this potentiation |
| c1cc2cc(c1)C[n+]1ccc(c3ccccc31)NCc1ccc(cc1)CNc1cc[n+](c3ccccc13)C2 [UCL1684, 6,10-diaza-3(1,3)8,(1,4)-dibenzena-1,5(1,4)-diquinolinacyclodecaphane, reference compound] |  |  | effect on KCa2.3 currents activated by 20 μM SKA-121 ([5]; FIG. 4F): had a similar effect |

The next lines start with results.

| effect of structural change on KCa2.3 and KCa3.1 activation compared with SKA-31 [4] | melting point | SMILES | further results |
| --- | --- | --- | --- |
| reduced both potency and selectivity |  | Nc1nc2c(s1)Cc1ccccc1-2 [SKA-69, 8H-Indeno[1,2-d]thiazol-2-amine] |  |
|  | 253 °C | Nc1nc2c(cc(Cl)c3ccccc32)s1 [SKA-72, 5-Chloronaphtho[1,2-d]thiazol-2-amine] | EC50 [5, 7]: 335 nM; EC50 [4, 8]: 110 nM |
|  | 257 °C | Nc1nc2c(cc3c4c(cccc42)CC3)s1 [SKA-73, 4,5-Dihydroaceoaphtho[5,4-d]thiazol-8-amine] | EC50 [5, 7]: 1000 nM; EC50 [4, 8]: 1000 nM |
| completely abolished activity |  | Cc1nc2c(ccc3ccccc32)s1 [SKA-74, 2-methylnaphtho[1,2-d]thiazole] | EC50 [4, 9]: 7800 nM |
| reduced potency and selectivity | 265 °C | N#Cc1cc2sc(N)nc2c2ccccc12 [SKA-107, 2-Aminonaphtho[1,2-d]thiazole-5-carbonitrile] |  |
|  | 157 °C | Cc1cc(C)c2ccc3sc(N)nc3c2c1 [SKA-109, 6,8-Dimethylnaphtho[1,2-d]thiazol-2-amine] | reduction of potency compared with SKA-31 [4]: 10 fold |
| reduction in potency | 161 °C | Nc1nc2c(ccc3sccc32)s1 [SKA-110, Thieno[2′,3′:5,6]benzo[1,2-d]thiazol-2-amine] |  |
| reduced potency and selectivity | 213 °C | COc1cc2sc(N)nc2c2ccccc12 [SKA-117, 5-Methoxynaphtho[1,2-d]thiazol-2-amine] |  |
